The values that follow come from patent US20260116910A1, “POLYCYCLIC COMPOUNDS AND METHODS THEREOF” (HEPAITECH (BEIJING) BIOPHARMA TECHNOLOGY CO., LTD., priority 2021, published 2026).

The target of test [1] is T1, human FXR (NR1H4) (Homo sapiens, UniProt Q96RI1).
T1 sequence (Q96RI1 1-476 isoform Q96RI1-1): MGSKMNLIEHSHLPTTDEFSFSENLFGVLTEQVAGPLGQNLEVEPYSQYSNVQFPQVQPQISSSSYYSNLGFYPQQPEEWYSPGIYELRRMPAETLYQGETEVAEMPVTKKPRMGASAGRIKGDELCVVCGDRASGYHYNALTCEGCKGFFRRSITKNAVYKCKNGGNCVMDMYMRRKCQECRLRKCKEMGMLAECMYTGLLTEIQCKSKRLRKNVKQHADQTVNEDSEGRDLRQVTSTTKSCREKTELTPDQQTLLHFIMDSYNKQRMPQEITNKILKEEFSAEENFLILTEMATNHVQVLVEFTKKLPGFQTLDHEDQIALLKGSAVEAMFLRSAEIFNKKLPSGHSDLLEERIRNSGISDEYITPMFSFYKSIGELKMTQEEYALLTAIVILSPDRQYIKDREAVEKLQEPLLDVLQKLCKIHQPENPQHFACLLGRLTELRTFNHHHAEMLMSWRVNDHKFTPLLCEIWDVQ
Put plainly: Human FXR (NR1H4) agonist assessment, FXRE-NanoLuc reporter in HEK293T cells. It counts as cell-based. Conditions: for EC50: read-out: EC50. The procedure: As those skilled in the art appreciate, various technologies are available for assessment of FXR activation in accordance with the present disclosure. […] Human FXR (NR1H4) agonist assessment (see, e.g., Yu et al. eLife 2019; 8: e48431): HEK293T cells stably expressing human FXR and containing FXR response element (FXRE)-NanoLuc reporter were cultured in DMEM medium supplemented with 10% FBS and 1% PS, at 37° C. in a humidified atmosphere with 5% CO2. Cells were detached by centrifuging (1000 rpm, 3 min). The pellet was re-suspended in medium, and cell density was adjusted to about 1×10^6 cells/mL. 100 μL suspension was seeded to each well of a white-walled, clear-bottom 96-well microplates (cell plate). Cells in microplates were cultured overnight.
In the following day, cells were grown to higher than 95% density in each well. Culture medium was replaced, and compounds were added to the wells. 0.01% DMSO (v/v) served as negative control. Plates were incubated at 37° C. in 5% CO2 for 24 hr.
In the following day, a 10 μL aliquot of cell culture medium was removed from each well and combined with 40 μL culture medium plus […] assay buffer (containing 20 mM of the luciferase substrate coelenterazine). After 5 min incubation, luminescence was measured using an EnVision plate reader (PerkinElmer).
In some embodiments, gradient diluted solutions of several concentrations were used to treat cells and corresponding responses were used to fit sigmoid function and to derive EC50 in Origin.

For test [2], the target named is MRGPRX4 (Homo sapiens, UniProt Q96LA9). As to the kind of experiment: MRGPRX4 activation, Fluo-8 Ca2+ FLIPR assay in HEK293T cells stably expressing MRGPRX4. The note with it: for EC50: MRGPRX4 activation, Ca2+ fluorescence. Type of test: cell-based. Here is the method:
In some embodiments, cells were cultured in poly-D-Lys coated blacked walled, clear-bottom 96-well microplates. HEK293T cells stably expressing MRGPRX4 were cultured in DMEM medium supplemented with 10% FBS and 1% PS, at 37° C. in a humidified atmosphere with 5% CO2. Cells were detached by centrifuging (1000 rpm, 3 min). The pellet was re-suspended in medium, and cell density was adjusted to about 1×10^6 cells/mL. 100 μL suspension was seeded to each well of a microplates (cell plate). Cells in the microplates were cultured overnight. In the following day, cells were grown to higher than 95% density in each well.
Ca^2+ fluorescent dye loading: Fluo-8 AM (Screen Quest Fluo-8 AM Calcium Assay Kit, AAT Bioquest, cat. #: 21083) was diluted in HHBS buffer and adjusted to 2 μM (dye buffer). Medium in each well was changed into 50 μL dye buffer carefully. After incubation for 40-60 min under room temperature, the dye buffer was changed into 50 μL HHBS buffer.
The concentration of solution should be determined according to the protocol settings and experimental needs (e.g., Log[M]=−4, −5, −6, −7, −8, and −9). Prepare 2× serial dilution series of compounds (at least 75 μL per well).
A fluorescent signal baseline was measured using FLIPR®Tetra for 30 s. Then 50 μL of the chemical solution would be added to the cell plate. The fluorescent signal would be measured for another 150 s.
Activity of each compound was calculated by the fluorescence change (dF/F0). Curves were fitted to obtain EC50 values. In some embodiments, at least 3 repeats were performed to obtain the average values. For assessment of a compound, gradient diluted solutions of different concentrations were used to treat cells and corresponding responses were used to fit sigmoid function and to derive EC50 in Origin. In some embodiments, assessed concentrations were or included about 10^−4, 10^−4.5, 10^−5, 10^−5.5, 10^−6, 10^−6.5, 10^−7, 10^−8, and/or 10^−9 M; for example, in many instances, assessed concentrations included about 10^−5, 10^−6, 10^−7 and 10^−8 M. In some embodiments, assessed concentrations were about 10^−4, 10^−4.5, 10^−5, 10^−5.5, 10^−6, 10^−7, 10^−8, and 10^−9 M. In some embodiments, assessed concentrations were about 10^−4, 10^−5, 10^−6, 10^−7, 10^−8, and 10^−9 M. In some embodiments, assessed concentrations were about 10^−4, 10^−4.5, 10^−5, 10^−5.5, 10^−6, and 10^−7 M. In some embodiments, assessed concentrations were about 2000000, 1000000, 500000, 250000, 125000, 62500, 31250, 15625, 7813, 3906 nM. […] In some embodiments, assessed concentrations were about 30000, 10000, 3333, 1111, 370, 123, 41, 14, 4.6, 1.5 nM.

Setting [3] is: FXR activation, HEK293T FXRE-NanoLuc reporter, 24 hr.

The structures appear in SMILES notation. Like-named read-outs stand apart in the source and are kept apart here. A value given as a limit tells only on which side of the number the result lay.

Sequence of MRGPRX4 (Q96LA9 whole entry): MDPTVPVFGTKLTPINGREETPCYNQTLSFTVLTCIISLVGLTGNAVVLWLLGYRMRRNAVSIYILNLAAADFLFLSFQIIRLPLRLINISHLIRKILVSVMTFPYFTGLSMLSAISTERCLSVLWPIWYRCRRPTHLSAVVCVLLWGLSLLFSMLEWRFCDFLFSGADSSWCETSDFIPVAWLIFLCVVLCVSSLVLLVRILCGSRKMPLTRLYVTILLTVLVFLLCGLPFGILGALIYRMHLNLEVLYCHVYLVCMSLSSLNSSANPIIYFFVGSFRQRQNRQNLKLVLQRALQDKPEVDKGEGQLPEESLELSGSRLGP

Turning to `CC[C@H]1[C@@H](O)[C@@H]2[C@H](CC[C@]3(C)[C@@H]([C@H](C)CCNC(=O)NS(=O)(=O)c4ccc(C(C)(C)C(=O)OC)cc4)CC[C@@H]23)[C@@]2(C)CCCC[C@@H]12` [5-9], in test [1] (setting [3]), the “Efficacy (maximum measured induction of NanoLuc, normalized to CDCA set as 100%)” value is recorded as “B (300%<efficacy <=400%)” and the EC50 was less than 1 µM.

As to `CC[C@H]1[C@@H](O)[C@@H]2[C@H](CC[C@]3(C)[C@@H]([C@H](C)CCNC(=O)NS(=O)(=O)c4ccc(C(F)(F)F)cc4)CC[C@@H]23)[C@@]2(C)CCCC[C@@H]12` [5-19], in test [1] (setting [3]), the “Efficacy (maximum measured induction of NanoLuc, normalized to CDCA set as 100%)” value was “C (100%<efficacy <=300%)” and the EC50 was less than 1 µM.

On to `CC[C@H]1[C@@H](O)[C@@H]2[C@H](CC[C@]3(C)[C@@H]([C@H](C)CCNC(=O)NS(=O)(=O)C[C@]45CCC(CC4=O)C5(C)C)CC[C@@H]23)[C@@]2(C)CCCC[C@@H]12` [5-27], for which, in test [1] (setting [3]), the “Efficacy (maximum measured induction of NanoLuc, normalized to CDCA set as 100%)” value was “A (efficacy >400%)” and the EC50 was less than 1 µM.

With `CC[C@H]1[C@@H](O)[C@@H]2[C@H](CC[C@]3(C)[C@@H]([C@H](C)CCN)CC[C@@H]23)[C@@]2(C)CCCC[C@@H]12` [6-1], in test [1] (setting [3]), the “Efficacy (maximum measured induction of NanoLuc, normalized to CDCA set as 100%)” value is reported as “B (300%<efficacy <=400%)” and the EC50 is less than 1 µM.

`CC[C@H]1[C@@H](O)[C@@H]2[C@H](CC[C@]3(C)[C@@H]([C@H](C)CCNC(=S)NS(=O)(=O)c4ccc(C(C)(C)CF)cc4)CC[C@@H]23)[C@@]2(C)CCCC[C@@H]12` [7-2]: in test [1], the “Efficacy (maximum measured induction of NanoLuc, normalized to CDCA set as 100%)” value is on record as “B (key: A: efficacy >400%; B: 300%<efficacy <=400%; C: 100%<efficacy <=300%; D: efficacy <=100%)”. The EC50 in test [1] (setting [3]) is less than 1 µM.

Turning to `C[C@H](CCC(=O)O)[C@H]1CC[C@H]2[C@@H]3[C@H](O)C[C@@H]4C[C@H](O)CC[C@]4(C)[C@H]3CC[C@]12C` [CDCA, chenodeoxycholic acid, reference compound], the “MRGPRX4 activation, fluorescence change (dF/F0), Average” value in test [2] (Conc. (Log[M]) −4) is 1.098; in test [2] (Conc. (Log[M]) −4.5), 0.586; in test [2] (Conc. (Log[M]) −5) it was 0.082; in test [2] (Conc. (Log[M]) −5.5), −0.017; in test [2] (Conc. (Log[M]) −6) it was −0.057; in test [2] (Conc. (Log[M]) −7), −0.044. In addition, the “MRGPRX4 activation, fluorescence change (dF/F0), Average” value is listed as −0.049 in test [2] (Conc. (Log[M]) −8) and −0.070 in test [2] (Conc. (Log[M]) −9).

Consider `C[C@H](CCC(=O)O)[C@H]1CC[C@H]2[C@@H]3CC[C@@H]4C[C@H](O)CC[C@]4(C)[C@H]3C[C@H](O)[C@]12C` [DCA, deoxycholic acid, reference compound], for which the “Activation (%)” value in test [2] (E3-8-1, 5 nM, n = 1) stood at 1.93%; in test [2] (E3-8-1, 5 nM, n = 2) it was 0.08%; in test [2] (E3-8-1, 15 nM, n = 1), 1.01%; in test [2] (E3-8-1, 15 nM, n = 2), 0.39%; in test [2] (E3-8-1, 46 nM, n = 1) it was 2.24%; in test [2] (E3-8-1, 46 nM, n = 2) it was 0.70%. For the same molecule, the “Activation (%)” value in test [2] (E3-8-1, 412 nM, n = 1) is reported as 3.48%; in test [2] (E3-8-1, 412 nM, n = 2) it was 0.70%; in test [2] (E3-8-1, 1235 nM, n = 1) it was 14.9%; in test [2] (E3-8-1, 1235 nM, n = 2), 6.58%; in test [2] (E3-8-1, 3704 nM, n = 1), 37.5%; in test [2] (E3-8-1, 3704 nM, n = 2), 30.1%. The “Activation (%)” value in test [2] (E3-8-1, 11111 nM, n = 1) was found to be 73.8%; in test [2] (E3-8-1, 11111 nM, n = 2), 56.4%; in test [2] (E3-8-1, 33333 nM, n = 1) it was 95.1%; in test [2] (E3-8-1, 33333 nM, n = 2) it was 98.5%; in test [2] (E3-8-1, 100000 nM, n = 1), 96.4%; in test [2] (E3-8-1, 100000 nM, n = 2) it was 107.2%.

On to `CC[C@H]1[C@@H](O)[C@@H]2[C@H](CC[C@]3(C)[C@@H]([C@H](C)CCC(=O)O)CC[C@@H]23)[C@@]2(C)CC[C@@H](O)C[C@@H]12` [OCA, obeticholic acid, reference compound], for which the “Activation (%)” value was 3.48% in test [2] (E3-8-1, 3906 nM, n = 1); 4.41% in test [2] (E3-8-1, 3906 nM, n = 2); 3.48% in test [2] (E3-8-1, 7813 nM, n = 1); 4.10% in test [2] (E3-8-1, 7813 nM, n = 2); 6.58% in test [2] (E3-8-1, 15625 nM, n = 1); 9.06% in test [2] (E3-8-1, 15625 nM, n = 2). Besides, the “Activation (%)” value came to 13.7% in test [2] (E3-8-1, 31250 nM, n = 1); 25.8% in test [2] (E3-8-1, 31250 nM, n = 2); 65.7% in test [2] (E3-8-1, 62500 nM, n = 1); 49.9% in test [2] (E3-8-1, 62500 nM, n = 2); 100.4% in test [2] (E3-8-1, 125000 nM, n = 1); 85.8% in test [2] (E3-8-1, 125000 nM, n = 2). The “Activation (%)” value in test [2] (E3-8-1, 250000 nM, n = 1) came out at 104.4%; in test [2] (E3-8-1, 250000 nM, n = 2) it was 100.4%; in test [2] (E3-8-1, 500000 nM, n = 1) it was 138.8%; in test [2] (E3-8-1, 500000 nM, n = 2), 110.9%; in test [2] (E3-8-1, 1000000 nM, n = 1) it was 151.8%; in test [2] (E3-8-1, 1000000 nM, n = 2) it was 149.6%. In addition, the “Activation (%)” value amounted to 191.4% in test [2] (E3-8-1, 2000000 nM, n = 1) and 158.9% in test [2] (E3-8-1, 2000000 nM, n = 2). Besides, the 50% effective concentration (EC50) was less than 50 µM in test [2] (no activation in tested range reported as III, read-out: Activity (EC50 μM)) and 37 µM in test [2] (read-out: Activity (EC50 μM), value in parentheses).
